In brackets after ≈: the same amount, converted by molar mass. Entries after “also recorded” stand apart in the source; their conditions may differ. Like-named read-outs stand apart in the source and are kept apart here.
What was measured:
[1] = test system: Staphylococcus aureus 209P; experiment: Antibacterial activity in vitro, M.I.C., agar dilution streak method; format: cell-based; conditions: Staphylococcus aureus, 209P; Gram +; read-out: M.I.C.
Sta. aureus ATCC 14775 = experiment: as above; format: cell-based, Staphylococcus aureus; conditions: Staphylococcus aureus, ATCC14775; Gram +; read-out: M.I.C.
Str. pyogenes S-8 = experiment: as above; format: cell-based, Streptococcus pyogenes; conditions: Streptococcus pyogenes, S8; Gram +; read-out: M.I.C.
Str. faecalis IID 682 = experiment: as above; format: cell-based; conditions: Enterococcus faecalis, IID682; Gram +
[2] = test system: Corynebacterium pyogenes IID 548; experiment: as above; format: cell-based; conditions: Corynebacterium pyogenes, IID548; Gram +
[3] = test system: Mycobacterium phlei IFO 3142; experiment: as above; format: cell-based; conditions: Mycolicibacterium phlei, IFO3142; Gram +; read-out: M.I.C.
My. smegmatis IFO 3083 = experiment: as above; format: cell-based; conditions: Mycolicibacterium smegmatis, IFO3083; Gram +; read-out: M.I.C.
[4] = test system: Klebsiella pneumoniae IFO 3512; experiment: as above; format: cell-based; conditions: Klebsiella pneumoniae, IFO3512; Gram -; read-out: M.I.C.
[5] = test system: Salmonella enteritidis IID 604; experiment: as above; format: cell-based; conditions: Salmonella enterica; Gram -; read-out: M.I.C.
Shigella sonnei IID 969 = experiment: as above; format: cell-based; conditions: Shigella sonnei, IID969; Gram -
Ps. aeruginosa IFO 12689 = experiment: as above; format: cell-based, Pseudomonas aeruginosa; conditions: Pseudomonas aeruginosa, IFO12689; Gram -; read-out: M.I.C.
Ps. aeruginosa IID 1130 = experiment: as above; format: cell-based, Pseudomonas aeruginosa; conditions: Pseudomonas aeruginosa, IID1130; Gram -; read-out: M.I.C.
[6] = test system: gram-positive and gram-negative bacteria including Pseudomonas aeruginosa; experiment: Antibacterial spectrum in vitro (summary in words); format: cell-based
[7] = test system: Escherichia coli NIHJ JC-2; experiment: Preventive effect against ascending kidney infection in mice with Escherichia coli; format: in vivo, Escherichia coli; mice (ddY, female); conditions: for effect against ascending kidney infection (in words): mice
Method: Ascending kidney infection was induced in female mice (strain: ddY, 6 weeks old, body weight: 22-26g), by instilling Escherlichia coli NIHJ JC-2 suspended in 0.04 ml of Tryptosoya broth (Nissan) into the urinary tract of mice anesthetized with sodium pentobarbital and by holding for 6 hours the mice in plastic tubes (diameter 25 mm) and clamping the outlet of urinary tract.
Each of these test material was orally administered 3 hours after inoculation. Mice were sacrificed 48 hours after inoculation. Kidneys were removed aseptically and bisected, and the two halves were pressed and streaked on agar plate containing Desoxycholate medium (Nissan). The therapeutic effect of each compound was evaluated from the absence of growth on the agar surface after 20 hours of incubation at 37° C.

[8] = Serum concentrations after a single oral administration of 50 mg/kg in rats; format: in vivo; conditions: rat, 50 mg/kg oral
[9] = test system: Escherichia coli NIHJ JC-2; experiment: Influence of serum on antibacterial activity; format: cell-based
Method: (§1) Nutrient agar was heated and melted. […] The diameter of the inhibition zone was measured.

[10] = test system: Escherichia coli NIHJ JC-2; experiment: Influence of kidney homogenate on antibacterial activity; format: cell-based
Method: as §1

[11] = Concentrations in urine of rats after a single oral administration; format: in vivo; conditions: rat; for concentration at 3 h: 0-3 hours; for concentration at 3 h / concentration at 6 h / concentration at 24 h / concentration at 27 h: mean ±S.E., read-out: Urinary level; for concentration at 6 h: 3-6 hours; for concentration at 24 h: 6-24 hours; for concentration at 27 h: 24-27 hours
[12] = Concentrations in urine of mice after a single oral administration; format: in vivo; conditions: mouse; for concentration at 3 h: 0-3 hours; for concentration at 3 h / concentration at 6 h / concentration at 24 h / concentration at 27 h: mean ±S.E., read-out: Urinary level; for concentration at 6 h: 3-6 hours; for concentration at 24 h: 6-24 hours; for concentration at 27 h: 24-27 hours
chromosome of myelocytes = test system: chromosome of myelocytes; set-up: species or system rats; conditions: rat, in vivo, po, 1000 mg/kg
[13] = rat, in vivo
[14] = rat, in vivo, po, 50 mg/kg
Method: Nutrient agar was heated and melted. Escherichia coli NIHJ JC-2 was added to melted agar, and well mixed, and 5 ml of the mixture was placed in Petri dish. Penicylinders were placed on the solidified agar, and the cylinder was filled with serum sample. The plate was placed in the incubator of 37° C. for 20 hours. The diameter of the inhibition zone was measured.
The tissue homogenates were prepared with 1:4 homogenates in M/15 phosphate buffer (pH 7.5).

[15] = oral, read-out: time of concentrations peak in urine

## CCn1cc(C(=O)O)c(=O)c2cc(F)c(N3CCNCC3)cc21 [Compound (II), 1-ethyl-6-fluoro-1,4-dihydro-7-(1-piperazinyl)-4-oxoquinoline-3-carboxylicacid]
[1]
  MIC: 0.78 µg/mL (≈ 2.44 µM)
Sta. aureus ATCC 14775
  MIC: 1.56 µg/mL (≈ 4.89 µM)
Str. pyogenes S-8
  MIC: 1.56 µg/mL (≈ 4.89 µM)
Str. faecalis IID 682
  MIC: 3.13 µg/mL
[2]
  MIC: 3.13 µg/mL
[3]
  MIC: 0.39 µg/mL (≈ 1.22 µM)
My. smegmatis IFO 3083
  MIC: 1.56 µg/mL (≈ 4.89 µM)
[4]
  MIC: 0.05 µg/mL (≈ 0.157 µM)
[5]
  MIC: 0.2 µg/mL (≈ 0.626 µM)
Shigella sonnei IID 969
  MIC: 0.1 µg/mL (≈ 0.313 µM)
Ps. aeruginosa IFO 12689
  MIC: 1.56 µg/mL (≈ 4.89 µM)
Ps. aeruginosa IID 1130
  MIC: 0.78 µg/mL (≈ 2.44 µM)
[6]
  antibacterial activity (in words): more active than nalidixic acid and pipemidic acid against both of gram-positive and gram-negative bacteria; also recorded: more active than gentamicin and carbenicillin against gram-negative bacteria including Pseudomonas aeruginosa; also recorded: inhibited even such bacteria those were not susceptible to nalidixic acid, pipemidic acid and carbenicillin
[7]; Escherichia coli, NIHJJC2, 48 h, oral, 3 hours after inoculation, challenge 3.2 × 10^7 cells/mouse, read-out: ED50 (95% confidence limit)
  ED50: 15 mg/kg
[7]; Escherichia coli, NIHJJC2, 48 h, oral, 3 hours after inoculation, challenge 3.2 × 10^7 cells/mouse, read-out: ED90
  ED90: 61 mg/kg
[7]
  effect against ascending kidney infection (in words): more potent than nalidixic acid and pipemidic acid
[7]; listed as EXAMPLE 2
  effect against ascending kidney infection (in words): effective against ascending kidney infection with Escherichia coli in mice
[8]
  absorption (in words): rapid
[8]; serum, 0.5 hours
  concentration at 0.5 h: 870 ± 110 ng/mL
[8]; serum, 1 hour
  concentration at 1 h: 770 ± 130 ng/mL
[8]; serum, 2 hours
  concentration at 2 h: 520 ± 100 ng/mL
[8]; serum, 4 hours
  concentration at 4 h: 230 ± 20 ng/mL
[8]; serum, 6 hours
  concentration at 6 h: 110 ± 10 ng/mL
[8]; serum, read-out: time of concentration peak in serum (converted)
  Tmax: 0.5 h
[9]
  antibacterial activity in presence of serum (in words): not decreased by serum
[10]
  antibacterial activity in presence of kidney homogenate (in words): decreased by liver and kidney homogenate
[11]; 1.56 mg/kg oral
  concentration at 3 h: 1360 ± 140 ng/mL
  concentration at 6 h: 930 ± 140 ng/mL
  concentration at 24 h: 170 ± 50 ng/mL
  concentration at 27 h: 40 ± 10 ng/mL
[11]; 3.13 mg/kg oral
  concentration at 3 h: 3390 ± 550 ng/mL
  concentration at 6 h: 3780 ± 440 ng/mL
  concentration at 24 h: 580 ± 90 ng/mL
  concentration at 27 h: 30 ng/mL
[11]; 6.25 mg/kg oral
  concentration at 3 h: 9690 ± 2300 ng/mL
  concentration at 6 h: 8080 ± 1500 ng/mL
  concentration at 24 h: 1360 ± 200 ng/mL
  concentration at 27 h: 40 ng/mL
[11]; 12.5 mg/kg oral
  concentration at 3 h: 21900 ± 3600 ng/mL
  concentration at 6 h: 16800 ± 1600 ng/mL
  concentration at 24 h: 4000 ± 500 ng/mL
  concentration at 27 h: 60 ± 20 ng/mL
[11]; 25.0 mg/kg oral
  concentration at 3 h: 56800 ± 11100 ng/mL
  concentration at 6 h: 46400 ± 3800 ng/mL
  concentration at 24 h: 13500 ± 3000 ng/mL
  concentration at 27 h: 1200 ± 500 ng/mL
[11]; 50.0 mg/kg oral
  concentration at 3 h: 89300 ± 19500 ng/mL
  concentration at 6 h: 99200 ± 15900 ng/mL
  concentration at 24 h: 32200 ± 100 ng/mL
  concentration at 27 h: 3100 ± 900 ng/mL
[11]; [15]
  Tmax: 0 to 6 h
[12]; 1.56 mg/kg oral
  concentration at 3 h: 530 ± 60 ng/mL
  concentration at 6 h: 220 ± 40 ng/mL
  concentration at 24 h: 40 ± 30 ng/mL
  concentration at 27 h: 30 ± 20 ng/mL
[12]; 3.13 mg/kg oral
  concentration at 3 h: 1760 ± 190 ng/mL
  concentration at 6 h: 1460 ± 230 ng/mL
  concentration at 24 h: 270 ± 40 ng/mL
  concentration at 27 h: 140 ± 10 ng/mL
[12]; 6.25 mg/kg oral
  concentration at 3 h: 3700 ± 260 ng/mL
  concentration at 6 h: 2040 ± 130 ng/mL
  concentration at 24 h: 3010 ± 170 ng/mL
  concentration at 27 h: 380 ± 50 ng/mL
[12]; 12.5 mg/kg oral
  concentration at 3 h: 10300 ± 900 ng/mL
  concentration at 6 h: 8300 ± 700 ng/mL
  concentration at 24 h: 7400 ± 800 ng/mL
  concentration at 27 h: 1200 ± 100 ng/mL
[12]; 25.0 mg/kg oral
  concentration at 3 h: 16200 ± 3300 ng/mL
  concentration at 6 h: 20300 ± 1700 ng/mL
  concentration at 24 h: 11700 ± 900 ng/mL
  concentration at 27 h: 2500 ± 200 ng/mL
[12]; 50.0 mg/kg oral
  concentration at 3 h: 33100 ± 2800 ng/mL
  concentration at 6 h: 27200 ± 3200 ng/mL
  concentration at 24 h: 23100 ± 2000 ng/mL
  concentration at 27 h: 7700 ± 1100 ng/mL
[12]; [15]
  Tmax: 0 to 6 h
Chromosome of myelocytes
  effects on chromosome of myelocytes (in words): no effects of the test compound on chromosome of myelocytes were observed
[13]
  dose dependence of serum concentration (in words): depended on the dose from 25 mg/kg to 400 mg/kg
[14]; 30 min
  Tissue level, kidney (free concentration): 7.4 ± 1.4 µg/g
[14]; 60 min
  Tissue level, kidney (free concentration): 6.8 ± 1.2 µg/g
[14]; 120 min
  Tissue level, kidney (free concentration): 4.4 ± 0.6 µg/g
[14]; 240 min
  Tissue level, kidney (free concentration): 1.9 ± 0.2 µg/g
[14]; 360 min
  Tissue level, kidney (free concentration): 1.0 ± 0.1 µg/g

— patent publication US4146719A, “Piperazinyl derivatives of quinoline carboxylic acids” (priority 1977, dated 1979)
